Laboratory results from article PMC10610289, “Novel Baicalein-Derived Inhibitors of Plasmodium falciparum” (Pathogens, 2023).
“Also recorded” adds a separate entry of the source. Where two headings read alike, the source gives them in different places.

Key:
[1] = tested on: Plasmodium falciparum 3D7 (chloroquine-sensitive); test: Antimalarial assay (IC50 determination), asexual blood stage, SYBR green; format: cell-based; conditions: Plasmodium falciparum
Protocol: (§1) Parasite lines used in the study were P. falciparum 3D7 (Pf3D7 Chloroquine-sensitive) and Plasmodium falciparum K1 (PfK1 Chloroquine-resistant) sourced from the Malaria Research and Reference Reagent Resource Center (MR4), ATCC, Manassas, VA, USA. FNDR-10132 was tested against a cross-resistance panel at Swiss TPH, Allschwil, Switzerland.
(§2) As per the modified protocol stated by Trager and Jensen, 1976, Plasmodium falciparum parasite lines (Pf3D7 and PfK1) were cultured. Plasmodium strains were maintained in RPMI-1640 medium at 3–5% hematocrit supplemented with 0.2% w/v glucose, 0.5% w/v AlbuMaxII, 0.2% w/v NaHCO3, and 30 μg/mL gentamycin, and, additionally, 15 μM hypoxanthine was added and incubated at 37 °C with 5% O2, 5% CO2, and 90% N2. After 24 h, the medium was changed. After attaining high parasitemia (6–8% mature stage parasite), the culture was sub-passaged with fresh human RBCs.
(§3) All tested compounds were dissolved in a DMSO solvent and a prepared stock solution of 10 mM. The reference drug, Chloroquine diphosphate, was dissolved in CRPMI. Working solutions were made from stock solution after diluting in a CRPMI medium during the experiment. The maximum concentration of DMSO used in this study was <1%. It had no parasiticidal effect.
(§4) The P. falciparum (0.8–1% parasitemia and 1% hematocrit) synchronous culture was exposed for 72 h (at 37 °C, 5% O2, 5% CO2, and 90% N2) to the serially diluted compound in 96-well plates. A total of 100 µL of RBCs lytic buffer (5 mM EDTA, 20 mM Tris pH 7.5, 0.08% Triton X-100, and 0.008% Saponin) containing the SYBR green 1-X final concentration was distributed to each well and incubated for one hour at room temp in the dark. The plates were read under a fluorescence reader at an excitation of 485 ± 20 nm and emission of 535 ± 25 nm. The IC50 values were calculated based on the DNA content of the parasite relative to its control. An inhibitory concentration of 50% (IC50) was determined using the MS-EXEL template.

[2] = tested on: Plasmodium falciparum K1 (chloroquine-resistant); test: as above; format: cell-based; conditions: read-out: ABS Assay Pf (K1)
Protocol: as §1, §2, §3, §4

[3] = tested on: P. falciparum male gametocytes; test: P. falciparum dual gamete formation assay (PfDGFA), male; format: cell-based; conditions: Plasmodium falciparum, read-out: DGF Assay—Inhibition, male
Protocol: The FNDR-10132 was evaluated in a male and female gametocyte functional viability assay by following the procedure described in Ruecker et al..

Plasma stability = format: in vitro ADME
From the text: Table 5 The compound FNDR-10132 progression profile. | column: FNDR-10132

[4] = tested on: Plasmodium yoelii N67 (Chloroquine-resistant); test: In vivo antimalarial assay in Swiss mice; conditions: 100 mg/kg ×4 days, oral
Protocol: All animal experiments were performed following the institutional animal ethics committee (IAEC). Laboratory-bred Swiss albino mice (both male and female) weighing 20–22 g were obtained from breeding colonies at the National Laboratory Animal Centre at the CSIR-CDRI, Lucknow, with due permission from the animal ethics committee (IAEC/2018/16/Renew-1/Dated-05/04/2019). The rodent malaria parasite Plasmodium yoelii N67 (chloroquine-resistant) was used for the study. This parasite was maintained by serial passage in healthy Swiss mice of either sex.
Swiss mice were inoculated with a standard inoculum of 1 × 106 P. yoelii N67 parasitized erythrocytes intraperitoneally. The 22-gauge hypodermic needle was used to infect the mice and was injected with a 0.5 mL (infected RBCs) volume. Treatment was initiated from day 0 to day 3 (total 4 days) once daily, and different routes of administration, viz., oral, intravenous, intraperitoneally, and subcutaneous, were used. For in vivo evaluation, compounds were dissolved in 300 µL of DMSO and were made up with MilliQ. The efficacy of in vitro active compounds was evaluated for in vivo activity at different doses, and the desired daily dose was administered in a 0.2 mL volume. A drop of blood from the mice’s tails was collected regularly throughout the experiment for parasitemia estimation. The group’s mean value was calculated using the percentage suppression of parasitemia compared with the untreated control group.

[5] = Body weight of mice during treatment; format: in vivo, Swiss mice; conditions: 100 mg/kg oral
From the text: One crucial aspect of evaluating potential malaria treatments is assessing their safety and tolerance in the host organism. In this regard, the present study closely monitored the body weights of the mice throughout the drug treatment.

Structure (SMILES): CCCCCCc1ccc(-c2cc(=O)c3c(O)c(O)c(O)cc3o2)cc1 [FNDR-10132]
- IC50 ([1]; 3D7, 72 h, P. falciparum 3D7, 72 h exposure, read-out: IC50): 60 nM
- IC50 ([1]; 3D7, chloroquine-sensitive 3D7, read-out: ABS Assay Pf (3D7)): 60 nM
- IC50 [2]: 177 nM
- inhibition at 1 µM [3]: 1.6%
- Plasma Stability (Plasma stability; at 30 min): 87.61%
- Plasma Stability (Plasma stability; at 45 min): 80.97%
- % Parasitemia ± S.D on Day 4 [4]: 8.5 ± 1.39 (4) %
- % Parasitemia ± S.D on Day 7 [4]: 26.15 ± 8.70 (4) %
- % Parasitemia ± S.D on Day 10 [4]: 24.07 ± 3.69 (3) %
- % Parasitemia ± S.D on Day 14 [4]: 46.5 ± 4.2 (2) %
- % Parasitemia ± S.D on Day 21 [4]: Dead
- Mean Survival Time (MST) Days ± SD [4]: 13.5 ± 2.3 days
- Day 4 % Suppression ([4]; Swiss mice): 44%
- Weight of Mice Day after the Last Dose of Treatment (Day 4) [5]: 27.5 gm
- Weight of Mice at the Initiation of Treatment (Day 0) [5]: 25 gm
- weight loss / tolerability (in words) [5]: no significant weight loss; also recorded: well-tolerated
- Weight Gain ([5]; Day 0 to Day 4): 2.5 gm
